In the data set the test system is aquatic species in Liaohe River Basin. As to the kind of experiment: Derivation of site-specific water quality criterion (species sensitivity distribution and toxicity sorting).

For ammonia nitrogen, the “water quality criterion value derived by the toxicity sorting method” value (Liaohe River Basin, four most sensitive resident sensitive and endemic species) stood at 15.91 mg/L. Moreover, the “water quality criterion value derived by the species sensitivity method” value (Liaohe River Basin, safety coefficient 2) was 13.47 mg/L. Also, under “Liaohe River Basin, weights 0.3 and 0.7, pH=7.0 and temperature=20° C.”, the “water quality criterion value (validation value)” value was determined as 15.18 mg/L. Further, the “X value at Y=0.05 transformed to a base-10 exponent” value (logistic SSD model, before division by safety coefficient 2) stood at 26.93 mg/L. Further, the “X (log10 toxicity value) at Y=0.05 on the logistic SSD fitting curve” value (logistic model, cumulative probability Y=0.05, pH=7.0, temperature=20° C.) is given as 1.4302.

Values taken from patent publication US20220042962A1, “METHOD FOR […] SITE-[…] WATER QUALITY […] OF RIVER BASIN” (DALIAN UNIVERSITY OF TECHNOLOGY, priority 2020, published 2022).
